Experimental data taken from patent publication US20060189688A1 (priority 2003, published 2006).

Legend:
[1] = system: virus-specific receptors located on red blood cells; set-up: species or system human; conditions: red blood cells used for the haemagglutination assay
[2] = system: viral haemagglutinin HA antigen on the cellular surface of infected LLC-MK2 cells; assay type: cell-based, influenza A virus; conditions: 24 and 48 hours post infection; treated versus untreated infected LLC-MK2 cells
[3] = system: avian influenza A virus Ulster/73, H7N1; assay type: cell-based; conditions: A/Ulster/73, H7N1 strain
[4] = system: virus-induced polypeptides of A/NWS/33 in LLC-MK2 cells; assay type: cell-based, influenza A virus; conditions: MESNA 20 mg/ml, effect particularly evident at 1, 2, 5, 1.0, 15 mg/ml
[5] = system: human influenza A virus NWS/33, H1N1; assay type: cell-based
[6] = system: human influenza A virus NWS/33, H1N1; assay type: cell-based; remark: listed apart in the source
[7] = system: human influenza A virus NWS/33, H1N1; assay type: cell-based; remark: listed apart in the source

Row | Structure (SMILES) | interference with virus-specific receptors on red blood cells [1] | haemagglutinin molecules on the surface of infected cells (haemadsorption values) [2] | results with avian strain compared with human influenza virus A/NWS/33 [3] | synthesis of virus-induced polypeptides (early and late viral proteins) [4] | time of addition up to which MESNA is effective [5] [hours post infection] | virus production (haemagglutination, presence/absence of mature viral particles) [6] | reversibility of inhibition of the production of viral particles [7] | antiviral action in comparison studies (all experiments repeated) [6]
1 | O=S(=O)([O-])CCS.[Na+] [MESNA, Sodium 2-mercaptoethanesulfonate] | did not interfere | great reduction, if not the absence | completely reproducible and absolutely comparable | marked reduction | ≤ 6 | able to suppress virus production | irreversible inhibition | 
2 | O=C([O-])CN(CCN(CC(=O)[O-])CC(=O)[O-])CC(=O)[O-].[Na+].[Na+].[Na+].[Na+] [sodium edetate] |  |  |  |  |  |  |  | not able to exert an antiviral action
